Experiments:
[1] = tested on: Bovine brain microvessel endothelial cells; experiment: Ability to cross endothelial monolayers (permeability index); assay type: in vitro ADME; details: permeability index from PSe, endothelial monolayer, compared with ^3H-water and ^14C-sucrose, first 10 minutes, 37° C.
Method: The model consists of a cultured monolayer of bovine brain endothelial cells, which form tight intercellular junctions. […] The rate of transit is compared with ^3H2O (a highly permeable tracer) and ^14C-sucrose (a non-permeable tracer).
Bovine brain microvessel endothelial cells were isolated using a modification of the Audus-Borchardt method (K. L. Audus et al., Ann. New York Acad. Sci., 1988; 9-18). […]
This system was placed into a 37° C., 5% CO2 incubator which contains an orbiting tissue culture plate shaker for agitation and 10 μL samples, from both inside (donor) and outside (acceptor) compartments, were taken simultaneously from a set of 4 Anocell inserts. These samples were counted first in a Gamma counter then, after 72 hours, in a scintillation counter with dual channel capabilities. The fraction of radioactivity transported from the donor to the acceptor wells at each time point over the first 10 minutes of the study was calculated. The average percent of radioactivity transported was plotted vs. time and the slope was estimated by linear regression analysis. […] The permeability index (Pi) is calculated using the PSe for each agent as follows: [formula]

Mitochondria = experiment: Studies in isolated mitochondria; parameters: species or system male Sprague Dawley rats; details: 37° C. for 60 minutes, means ±S.E.M.
Method: Mitochondria were prepared from hearts of male Sprague Dawley rats (200 g) using the isolation procedure of Fuller et al., (E. O. Fuller, D. I. Golderg, J. W. Starnes, M. Sacks, and M. J. Delavoria-Papadopoulos, Mol. Cell. Cardiol., 17:71, 1985). The heart was excised from anesthetized rats and trimmed free of the atria and great vessels. The ventricles were minced in ice-cold isolation medium (0.225 M mannitol, 75 mM sucrose, 1.0 mM EGTA and 10 mM MOPS, pH 7.4), briefly exposed to the proteolytic enzyme preparation, Nagase (Enzyme Development Corp., New York, N.Y.), and homogenized with a polytron. The mitochondria were separated from the remainder of the broken cells using density gradient centrifugation.
Three nitroimidazole compounds were incubated at 37° C. for 60 minutes in isolated mitochodria. Hypoxia and anoxia were induced as outlined in Example 12.
Values are given in percent of total radioactivity within an aliquot and represent means ±S.E.M. Compounds were tested using the same preparation of mitochondria.

[2] = tested on: Calcium-tolerant ventricular myocytes; experiment: Isolated cardiac myocyte studies, retention of radioactivity; assay type: cell-based, male Sprague Dawley rats; details: for Oil: dibutyl phthalate layer; for Oil / PCA Pellet / Cell Pellet: means ±S.E.M.; for PCA Pellet: perchloric acid-precipitated pellet; for Cell Pellet: whole cells passed through dibutyl phthalate; for percentage of activity associated with the protein/membrane fragments: cells disrupted by freezing and thawing (3×)
Source text: Calcium-tolerant ventricular myocytes were isolated from hearts of male Sprague Dawley rats (200 g) according to the procedure of Wittenberg and Robinson (B. A. Wittenberg and T. F. Robinson, Cell Tissue Res., 216: 231, 1981) with modifications described previously (W. Rumsey, C. Schlosser, E. M. Nuutinen, M. Robiolio and D. F. Wilson, J. Biol. Chem., 265 (26): 15392, 1990). Cells were used immediately following morphological analysis (using a hemocytometer) of viability and were maintained at 37° C. during the experiments. The number of quiescent, rod shaped cells ranged from 70-90% within a total population of 5-9×10^6 cells.
The isolated myocytes were maintained in either a normoxic, hypoxic or anoxic state. Hypoxia was induced by providing an atmosphere of argon atop of the cells and sealing the flask during the incubation period. Glucose oxidase plus catalase (5/5 mg) was added to argon treated cells to provide anoxia. Cells were suspended (6.5-7.5×10^4 cells/ml) in isolation media and aliquots were added to incubation vials maintained at 37° C.
After incubation with a test compound, myocytes were deproteinated with 1% ice-cold perchloric acid and centrifuged at 12,000 rpm for 30 sec. The supernatent was separated from the pellet and each counted using a LKB 1282 gamma counter. Alternatively, myocytes were separated from the suspending media by passing the cells through 99% dibutyl phthalate by centrifugation at 12,000 rpm for 30 sec. The three phases were separated and counted as described above. Results for the Tc-99m complex of the compound in Example 1 are given below:
Values represent means ±S.E.M. for the number of experiments noted in the parentheses. The values are the percent of total radioactivity represented by each case. PCA pellet=perchloric acid-precipitated pellet which represents the activity associated with proteins/membranes. Cell pellet=whole cells passed through a layer of dibutyl phthalate (oil).
Several Tc-99m complexes were examined in isolated myocytes using the protocol described above. The percentage of activity retained in the cell pellet was determined under anoxic and normoxic states.

[3] = Biodistribution of ^99mTc-complexes in normal (normoxic) Sprague-Dawley rats; assay type: in vivo; details: MEAN n=4
Method: Twelve Sprague-Dawley rats were anesthetized with Nembutal (50 mg/kg) and injected with 0.1 mL (20 μCi) of radioactivity via the jugular vein. At 1 minute, 5 minutes and 60 minutes after administration of the radiotracers (n=4 for all time points), the animals were sacrificed by exsanguination, and the target tissues removed, weighed and assayed for radioactivity. The rats were allowed to respire room air throughout the course of the study.

[4] = Anoxia (Glucose Oxidase) (n = 4)
[5] = isolated myocytes, several Tc-99m complexes
[6] = separate study, number of experiments in parentheses
[7] = 1 Min. after jugular vein injection
[8] = 5 Min. after jugular vein injection
[9] = 60 Min. after jugular vein injection

## [^99mTc]Oxo[[3,3,9,9-tetramethyl-1-(2-nitro-1H-imidazo-1-yl)-4,8-diazaundecane-2,10-dione dioximato]-(3-)-N,N′,N″,N′″]technetium(V) [^99mTc complex from ligand in Ex. 1]
[1]
  Pi: 63.2
Mitochondria
  percentage of radioactivity associated with the mitochondria, Hypoxia: 39.2 ± 1.0% of total radioactivity within an aliquot
  percentage of radioactivity associated with the mitochondria, Normoxia: 27.8 ± 1.2% of total radioactivity within an aliquot
Mitochondria; radioactivity associated with mitochondria
  Hypoxia/normoxia: 1.4 ± 0.1
[2]
  Anoxia/normoxia: 2.7
  Anoxia/normoxia ratio: 2.3
  Hypoxia/normoxia: 1.7
[2]; [4]
  Oil: 9.0 ± 2.6% of total radioactivity
  PCA Pellet: 55.5 ± 5.8% of total radioactivity
  Cell Pellet: 48.8 ± 4.2% of total radioactivity
[2]; Hypoxia (Argon) (n = 4)
  Oil: 20.1 ± 5.3% of total radioactivity
  PCA Pellet: 48.5 ± 3.4% of total radioactivity
  Cell Pellet: 36.9 ± 8.8% of total radioactivity
[2]; Normoxia (n = 5)
  Oil: 22.8 ± 2.2% of total radioactivity
  PCA Pellet: 40.5 ± 2.7% of total radioactivity
  Cell Pellet: 23.2 ± 3.7% of total radioactivity
[2]; anoxic (glucose oxidase), n=3
  percentage of activity associated with the protein/membrane fragments: 25.3±2.5%
[2]; normoxic, n=3
  percentage of activity associated with the protein/membrane fragments: 23.3±0.8%
[2]; [5]
  % in Cell Pellet, Anoxia: 53.0 ± 2.2%
  % in Cell Pellet, Normoxia: 24.1 ± 2.3%
[2]; normoxic cells
  effect of FCCP (uncoupler) on retention: had no effect on the retention
[2]; normoxic cells, n=3
  effect of cyanide on retention: had no effect on retention in normoxic cells
[2]; [6]
  uptake in isolated myocytes, Anoxia: 48 ± 6 (3)
  uptake in isolated myocytes, Hypoxia: 30 ± 7 (3)
  uptake in isolated myocytes, Normoxia: 18 ± 1 (3)
[3]; [7]
  Percent ID/g Bladder: 0.15 Percent ID/g
  Percent ID/g Blood: 0.47 Percent ID/g
  Percent ID/g Bone: 0.37 Percent ID/g
  Percent ID/g Brain: 0.30 Percent ID/g
  Percent ID/g Heart: 1.32 Percent ID/g
  Percent ID/g Kidneys: 2.59 Percent ID/g
  Percent ID/g Liver: 2.06 Percent ID/g
  Percent ID/g Lower Intestine: 0.50 Percent ID/g
  Percent ID/g Lungs: 0.71 Percent ID/g
  Percent ID/g Muscle: 0.25 Percent ID/g
  Percent ID/g Spleen: 0.84 Percent ID/g
  Percent ID/g Stomach: 0.67 Percent ID/g
  Percent ID/g Thymus: 0.55 Percent ID/g
  Percent ID/g Thyroid: 0.65 Percent ID/g
  Percent ID/g Upper Intestine: 1.13 Percent ID/g
[3]; [8]
  Percent ID/g Bladder: 0.68 Percent ID/g
  Percent ID/g Blood: 0.36 Percent ID/g
  Percent ID/g Bone: 0.23 Percent ID/g
  Percent ID/g Brain: 0.11 Percent ID/g
  Percent ID/g Heart: 0.34 Percent ID/g
  Percent ID/g Kidneys: 1.15 Percent ID/g
  Percent ID/g Liver: 3.63 Percent ID/g
  Percent ID/g Lower Intestine: 0.40 Percent ID/g
  Percent ID/g Lungs: 0.39 Percent ID/g
  Percent ID/g Muscle: 0.14 Percent ID/g
  Percent ID/g Spleen: 0.45 Percent ID/g
  Percent ID/g Stomach: 0.56 Percent ID/g
  Percent ID/g Thymus: 0.25 Percent ID/g
  Percent ID/g Thyroid: 0.77 Percent ID/g
  Percent ID/g Upper Intestine: 0.98 Percent ID/g
[3]; [9]
  Percent ID/g Bladder: 2.84 Percent ID/g
  Percent ID/g Blood: 0.28 Percent ID/g
  Percent ID/g Bone: 0.11 Percent ID/g
  Percent ID/g Brain: 0.02 Percent ID/g
  Percent ID/g Heart: 0.09 Percent ID/g
  Percent ID/g Kidneys: 0.45 Percent ID/g
  Percent ID/g Liver: 2.45 Percent ID/g
  Percent ID/g Lower Intestine: 0.36 Percent ID/g
  Percent ID/g Lungs: 0.16 Percent ID/g
  Percent ID/g Muscle: 0.05 Percent ID/g
  Percent ID/g Spleen: 0.23 Percent ID/g
  Percent ID/g Stomach: 1.80 Percent ID/g
  Percent ID/g Thymus: 0.05 Percent ID/g
  Percent ID/g Thyroid: 0.15 Percent ID/g
  Percent ID/g Upper Intestine: 4.60 Percent ID/g

— US6958141B2, “Rhenium and technetium complexes containing a hypoxia-localizing moiety” (Bracco International B.V., priority 1991, dated 2005)
